Assay [1] deals with Staphylococcus hominis DSM 20328. The experiment in a line: Determination of the Minimum Inhibitory Concentration (MIC value) in microtitre plates, Staphylococcus hominis. The class given is cell-based. Conditions: Staphylococcus hominis, DSM20328, 48 h, read-out: MIC [μg/ml] SH. The method, then: (§1) Determination of the Minimum Inhibitory Concentration (MIC Value) in Microtitre Plates
Casein-soybean flour-peptone broth for preparation of pre-cultures of test bacteria and yeast.
Staphylococcus hominis DSM 20328 […]
(§2) The test substances are pre-dissolved in dimethyl sulfoxide (DMSO) and tested in a dilution series of 1:2.
(§3) The bacteria are cultured overnight in CASO broth and washed off using 10 ml of 0.85% sodium chloride solution (+0.1% Triton X-100).
(§4) All the test organisms are adjusted to an organism count of 1-5×10^6 CFU/ml using 0.85% sodium chloride solution.
(§5) The test substances are pre-pipetted into microtitre plates in amounts of 8 μl per well.
(§6) Pre-diluted test organism suspensions are diluted 1:100 in CASO broth.
(§7) The test batches are incubated for 48 hours at 37° C.
(§8) After incubation, the growth is determined on the basis of the turbidity of the test batches (optical density) at 620 nm in a microplate reader.
(§9) The minimum inhibitory concentration (MIC value) is the concentration of substance at which there is found (compared to the growth of the control) an appreciable inhibition of growth (≦20% growth) of the test organisms.
(§10) One microtitre plate is used for each test organism and substance concentration.
(§11) All the substances are tested in duplicate.

Assay [2] has as its system Escherichia coli NCTC 8196. The experiment in a line: Determination of the Minimum Inhibitory Concentration (MIC value) in microtitre plates, Escherichia coli. The class given is cell-based. Conditions: for MIC: Escherichia coli, NCTC8196, 48 h, read-out: MIC [μg/ml] EC. The method, then: as §1
Casein-soybean flour-peptone broth for preparation of pre-cultures of test bacteria and yeast. […]
Escherichia coli NCTC 8196
as §2, §3, §4, §5, §6, §7, §8, §9, §10, §11

[3] abbreviates: Staphylococcus hominis DSM 20328, CASO broth, 48 hours at 37° C., MIC = ≦20% growth (optical density at 620 nm).
The mark [4] stands for this setting: Escherichia coli NCTC 8196, CASO broth, 48 hours at 37° C., MIC = ≦20% growth (optical density at 620 nm).

Structures are written as SMILES. Where two headings read alike, the source gives them in different places.

Take `CCCCCCCCCCCCOc1ccc(CN2CCCCC2)cc1OC` [Compound of formula (3)]: the MIC was 3.75 µg/mL in assay [1] (setting [3]) and above 120 µg/mL in assay [2] (setting [4]).
With `CCCCCCCCCCCCOc1ccc(CN2CCCC2)cc1OC` [Compound of formula (4)], in assay [2] (setting [4]), the “MIC [μg/ml] EC” value stood at 30 µg/mL.
As to `CCCCCCOc1ccc(CN2CCCCC2)cc1OC` [Compound of formula (5)], the MIC in assay [1] (setting [3]) and in assay [2] (setting [4]) was above 120 µg/mL each time.
In the case of `CCCCCCOc1ccc(CN2CCCC2)cc1OC` [Compound of formula (6)], the MIC in assay [1] (setting [3]) and in assay [2] (setting [4]) was above 120 µg/mL throughout.
For `CCCCCCCCCCCCOc1ccc(CN(C)CCc2ccccn2)cc1OC` [Compound of formula (7)], the MIC was 60 µg/mL in assay [1] (setting [3]) and above 120 µg/mL in assay [2] (setting [4]).
For `CCCCCCCCCCCCOc1ccc(CN2CCOCC2)cc1OC` [Compound of formula (8)] the same measures were above 120 µg/mL and above 120 µg/mL.
For `CCCCCCCCCCCCOc1ccc(CN(C)CCCC)cc1OC` [Compound of formula (9)] the same measures were 15 µg/mL and above 120 µg/mL.
For `CCCCCCCCCCCCOc1ccc(CN2CCCCCC2)cc1OC` [Compound of formula (10)] the same measures were 3.75 µg/mL and above 120 µg/mL.
With `CCCCCCCCCCCCOc1ccc(CN(C(C)C)C(C)C)cc1OC` [Compound of formula (11)], the MIC in assay [1] (setting [3]) and in assay [2] (setting [4]) was above 120 µg/mL in each case.
On to `CCCCCCCCCCCCOc1ccc(CN2CCN(C)CC2)cc1OC` [Compound of formula (12)], for which the MIC came to 3.75 µg/mL in assay [1] (setting [3]) and 120 µg/mL in assay [2] (setting [4]).
For `CCCCCCCCCCCCOc1ccc(CN(CC)CC)cc1OC` [Compound of formula (13)] the same measures were 3.75 µg/mL and above 120 µg/mL.
For `CCCCCCCCCCCCOc1ccc(CN2CCN(C(C)=O)CC2)cc1OC` [Compound of formula (14)] the same measures were above 120 µg/mL and above 120 µg/mL.
Turning to `CCCCCCCCCCCCOc1ccc(CN(C)Cc2ccccc2)cc1OC` [Compound of formula (15)], the MIC in assay [1] (setting [3]) was 15 µg/mL; in assay [2] (setting [4]), above 120 µg/mL.
As for `CCCCCCCCCCCCOc1ccc(CN(C)CCCCCC)cc1OC` [Compound of formula (16)], the MIC in assay [1] (setting [3]) was 120 µg/mL; in assay [2] (setting [4]) it was above 120 µg/mL.
Regarding `CCCCCCCCCCCCOc1ccc(CN2CCN(CC)CC2)cc1OC` [Compound of formula (17)], the MIC is 7.5 µg/mL in assay [1] (setting [3]) and above 120 µg/mL in assay [2] (setting [4]).
In the case of `CCCCCCCCCCCCOc1ccc(CN2CCCC2)cc1OC` [Compound of formula (18)], the MIC in assay [1] (setting [3]) was determined as 3.75 µg/mL; in assay [2] (setting [4]), 15 µg/mL.
As to `CCCCCCCCCCCCOc1ccc(CN(C)CCCCCCCCCCCC)cc1OC` [Compound of formula (19)], the MIC in assay [1] (setting [3]) and in assay [2] (setting [4]) was above 120 µg/mL each time.
Regarding `CCCCCCCCCCCCOc1ccc(CN(C)C)cc1OC` [Compound of formula (20)], the MIC in assay [1] (setting [3]) came to 7.5 µg/mL; in assay [2] (setting [4]), 15 µg/mL.
For `CCCCCCCCCCCCOc1ccc(CN2CCNCC2)cc1OC` [Compound of formula (21)] the same measures were above 120 µg/mL and above 120 µg/mL.
For `CCCCCCCCCCCCOc1ccc(CN2CCN(c3cccc(OC)c3)CC2)cc1OC` [Compound of formula (22)] the same measures were above 120 µg/mL and above 120 µg/mL.
For `CCCCCCOc1ccc(CN(C)CCc2ccccn2)cc1OC` [Compound of formula (23)] the same measures were 60 µg/mL and above 120 µg/mL.
On to `CCCCCCOc1ccc(CN2CCOCC2)cc1OC` [Compound of formula (24)], for which the MIC in assay [1] (setting [3]) and in assay [2] (setting [4]) was above 120 µg/mL each time.
Take `CCCCCCOc1ccc(CN(C)CCCC)cc1OC` [Compound of formula (25)]: the MIC in assay [1] (setting [3]) and in assay [2] (setting [4]) was above 120 µg/mL throughout.
Regarding `CCCCCCOc1ccc(CN2CCCCCC2)cc1OC` [Compound of formula (26)], the MIC in assay [1] (setting [3]) and in assay [2] (setting [4]) was above 120 µg/mL each time.
As for `CCCCCCOc1ccc(CN(C(C)C)C(C)C)cc1OC` [Compound of formula (27)], the MIC in assay [1] (setting [3]) and in assay [2] (setting [4]) was above 120 µg/mL throughout.
Consider `CCCCCCOc1ccc(CN2CCN(C)CC2)cc1OC` [Compound of formula (28)], for which the MIC in assay [1] and in assay [2] was above 120 µg/mL throughout.
With `CCCCCCOc1ccc(CN(CC)CC)cc1OC` [Compound of formula (29)], the MIC in assay [1] (setting [3]) and in assay [2] (setting [4]) was above 120 µg/mL in each case.
Turning to `CCCCCCOc1ccc(CN2CCN(C(C)=O)CC2)cc1OC` [Compound of formula (30)], the MIC in assay [1] (setting [3]) and in assay [2] (setting [4]) was above 120 µg/mL throughout.
In the case of `CCCCCCOc1ccc(CN(C)Cc2ccccc2)cc1OC` [Compound of formula (31)], the MIC in assay [1] (setting [3]) and in assay [2] (setting [4]) was above 120 µg/mL in each case.
With `CCCCCCOc1ccc(CN(C)CCCCCC)cc1OC` [Compound of formula (32)], the MIC in assay [1] (setting [3]) amounted to 60 µg/mL; in assay [2] (setting [4]) it was 7.5 µg/mL.
For `CCCCCCOc1ccc(CN2CCN(CC)CC2)cc1OC` [Compound of formula (33)], the MIC in assay [1] and in assay [2] was above 120 µg/mL throughout.
With `CCCCCCCCCCCCN(C)Cc1ccc(OCCCCCC)c(OC)c1` [Compound of formula (35)], the results for the MIC in assay [1] (setting [3]) and in assay [2] (setting [4]) were 15 µg/mL and above 120 µg/mL, respectively.
Turning to `CCCCCCOc1ccc(CN(C)C)cc1OC` [Compound of formula (36)], the MIC in assay [1] (setting [3]) and in assay [2] (setting [4]) was above 120 µg/mL each time.
As to `CCCCCCOc1ccc(CN2CCNCC2)cc1OC` [Compound of formula (37)], the MIC in assay [1] and in assay [2] was above 120 µg/mL throughout.
Consider `CCCCCCOc1ccc(CN2CCN(c3cccc(OC)c3)CC2)cc1OC` [Compound of formula (38)], for which the MIC in assay [1] (setting [3]) and in assay [2] (setting [4]) was above 120 µg/mL each time.
In the case of `CCCCCCCCOc1ccc(CN(C)CCc2ccccn2)cc1OC` [Compound of formula (39)], the MIC in assay [1] (setting [3]) was 120 µg/mL; in assay [2] (setting [4]), above 120 µg/mL.
For `CCCCCCCCOc1ccc(CN2CCOCC2)cc1OC` [Compound of formula (40)] the same measures were above 120 µg/mL and above 120 µg/mL.
For the molecule `CCCCCCCCOc1ccc(CN(C)CCCC)cc1OC` [Compound of formula (41)], the MIC in assay [1] (setting [3]) and in assay [2] (setting [4]) was 15 µg/mL each time.
In the case of `CCCCCCCCOc1ccc(CN2CCCCCC2)cc1OC` [Compound of formula (42)], the MIC in assay [1] (setting [3]) and in assay [2] (setting [4]) was 15 µg/mL each time.
As for `CCCCCCCCOc1ccc(CN(C(C)C)C(C)C)cc1OC` [Compound of formula (43)], the MIC in assay [1] (setting [3]) and in assay [2] (setting [4]) was above 120 µg/mL each time.
For the molecule `CCCCCCCCOc1ccc(CN2CCN(C)CC2)cc1OC` [Compound of formula (44)], the MIC in assay [1] (setting [3]) and in assay [2] (setting [4]) was 120 µg/mL each time.
For `CCCCCCCCOc1ccc(CN(CC)CC)cc1OC` [Compound of formula (45)], the MIC in assay [1] (setting [3]) and in assay [2] (setting [4]) was 120 µg/mL each time.
Take `CCCCCCCCOc1ccc(CN2CCN(C(C)=O)CC2)cc1OC` [Compound of formula (46)]: the MIC in assay [1] (setting [3]) is above 120 µg/mL; in assay [2] (setting [4]) it was 120 µg/mL.
For `CCCCCCCCOc1ccc(CN(C)Cc2ccccc2)cc1OC` [Compound of formula (47)] the same measures were above 120 µg/mL and above 120 µg/mL.
Regarding `CCCCCCCCOc1ccc(CN(C)CCCCCC)cc1OC` [Compound of formula (48)], the results for the MIC in assay [1] (setting [3]) and in assay [2] (setting [4]) were 120 µg/mL and above 120 µg/mL, respectively.
As for `CCCCCCCCOc1ccc(CN2CCN(CC)CC2)cc1OC` [Compound of formula (49)], the values for the MIC in assay [1] (setting [3]) and in assay [2] (setting [4]) were 60 µg/mL and 120 µg/mL, respectively.
Regarding `CCCCCCCCOc1ccc(CN2CCCC2)cc1OC` [Compound of formula (50)], the MIC in assay [1] (setting [3]) and in assay [2] (setting [4]) was 60 µg/mL in each case.
In the case of `CCCCCCCCCCCCN(C)Cc1ccc(OCCCCCCCC)c(OC)c1` [Compound of formula (51)], the MIC in assay [1] (setting [3]) and in assay [2] (setting [4]) was above 120 µg/mL each time.
Turning to `CCCCCCCCOc1ccc(CN(C)C)cc1OC` [Compound of formula (52)], the MIC in assay [1] (setting [3]) and in assay [2] (setting [4]) was 120 µg/mL each time.
On to `CCCCCCCCOc1ccc(CN2CCNCC2)cc1OC` [Compound of formula (53)], for which the MIC in assay [1] and in assay [2] was above 120 µg/mL each time.
Regarding `CCCCCCCCOc1ccc(CN2CCCCC2)cc1OC` [Compound of formula (54)], the MIC in assay [1] (setting [3]) was found to be 60 µg/mL; in assay [2] (setting [4]) it was 30 µg/mL.
Turning to `CCCOc1ccc(CN(C)CCc2ccccn2)cc1OC` [Compound of formula (55)], the MIC in assay [1] (setting [3]) and in assay [2] (setting [4]) was above 120 µg/mL in each case.
On to `CCCOc1ccc(CN2CCOCC2)cc1OC` [Compound of formula (56)], for which the MIC in assay [1] (setting [3]) is 120 µg/mL; in assay [2] (setting [4]), above 120 µg/mL.

The record behind these values is patent publication US20040006061A1, “Alkoxybenzylamine” (priority 2001, published 2004).
